Consider one molecule from article PMC11284796, “Structure–Activity Relationship Studies of Aryl Sulfoxides as Reversible Monoacylglycerol Lipase Inhibitors” (Journal of Medicinal Chemistry, 2024).

As usually defined, the microsomal CLint is the capacity of the preparation to metabolise the compound, expressed as a volume cleared per time. The low end stands for slow turnover, the high end for rapid turnover.

SMILES strings stand for the structures. “Also recorded” adds a separate entry of the source.

A short description of one series: Liver S9 stability assay. It counts as in vitro ADME. The note with it: mouse, liver S9 fraction. The procedure: The compound was incubated with liver S9 fraction and the amount of remaining unmetabolized compound was determined with liquid chromatography–mass spectrometry/mass spectrometry (LC-MS/MS) in a time-dependent manner. The results are presented as intrinsic clearance (Clint), which is calculated as V × 0.693/t1/2 (μL/min/mg) in which V is the volume of incubation in μL per mg protein and t1/2 is the measured half-life in min. […] This is not surprising, because the compound has high lipophilicity (calculated octanol–water partition coefficient (cLog P) of 4.9) and contains a potential metabolically labile ester functionality. Since it is well-known that reducing lipophilicity may increase metabolic stability, several analogues (compound ±56–±60) were synthesized in which phenyl ring A was replaced with different pyridyls (compound ±56–±59) or in which the ethyl ester was substituted with a more polar group (compound ±60). […] The metabolic stability of these compounds was, however, not improved (Table 7). […] To test this hypothesis, compound ±61 was synthesized in which the ester moiety was replaced by a metabolically stable ether.
The rate of metabolism was assessed by incubation at 37 °C, pH 7.4 with mouse liver S9 fraction (1 mg protein/mL) supplemented with 5 mM NADP, 25 mM G6P, and 25 U/ml G6PD. The concentration of the initial substrate is 1 μM. Substrate depletion over a time course was measured by LC-MS/MS following protein precipitation. Amitryptilin (2.5 μM in ACN) was used as an internal standard. The ln peak area ratio (compound peak area/internal standard peak area) is plotted against time and the gradient of the line is determined. The following equations were used to calculate the intrinsic clearance:
Elimination rate constant (k) = (-gradient); half-life (t1/2, min) = 0.693/k; V (μL/mg) = volume of incubation (μL)/protein in the incubation (mg); intrinsic clearance (Clint, μL/min/mg) = V × 0.693/t1/2.

Series [1] has as its system 2-AG levels. More on the design: method as in PMID 38052772. The note with it: cited from earlier work.
In series [2] the test system is 2-AG levels. Also noted: method as in PMID 38052772. The note with it: cited from earlier work. The source holds these as a separate data set.
In series [3] the test system is mice. More on the design: method as in PMID 38052772. The note with it: listed as LEI-515; cited from earlier work.
Series [4] relates to mice. Also noted: method as in PMID 38052772. The note with it: listed as LEI-515; cited from earlier work. This is another data set of the same source.
For series [5], the system named is mice. Also noted: method as in PMID 38052772. The note with it: listed as LEI-515; cited from earlier work. This is another data set of the same source.

Consider `CCC(F)(F)C(=O)C[S+]([O-])c1ccc(C(=O)N2CCN(c3cccc(Cl)c3)[C@@H](C)[C@@H]2C)cc1Cl` (mixture of isomers) [±73, 1-((2-Chloro-4-(4-(3-chlorophenyl)-trans-2,3-dimethylpiperazine-1-carbonyl)phenyl)sulfinyl)-3,3-difluoropentan-2-one], for which the microsomal CLint at 1 μM turned out to be 30 µL/min/mg in “Liver S9 stability assay” (pH 7.4, mouse liver S9 fraction 1 mg protein/mL, 1 μM substrate, 37 °C, pH 7.4) and 30 µL/min/mg in “Liver S9 stability assay” (pH 7.4, supplementary csv). The “2-AG levels in live cells” value in the series with 2-AG levels [1] is reported as “increased”. The “2-AG levels in peripheral mouse organs in vivo” value in the series on 2-AG levels [2] is “increased”. Moreover, in the series on 2-AG levels [2] (mouse, oral administration), the “2-AG levels in the brain” value is “not in the brain”. Further, the “2-AG levels in mouse colon and lung” value in the series with 2-AG levels [2] (oral administration) is recorded as “increased”. For the same molecule, the “inflammation in an acute liver injury mouse model” value with mice [3] is “reduced inflammation”. Also, the “chemotherapy-induced neuropathic pain in mice” value in the series on mice [4] is reported as “suppressed chemotherapy-induced neuropathic pain; also recorded: suppress chemotherapy-induced neuropathic pain”. The “central nervous system adverse effects or physical dependence” value in the series with mice [5] is “without inducing central nervous system adverse effects or physical dependence; also recorded: did not induce central nervous system (CNS) adverse effects or physical dependence”.
